Assay results as given in patent EP2253620B1, “SUBSTITUTED 3-CYANOQUINOLINES AS PROTEIN TYROSINE KINASES INHIBITORS” (Wyeth Holdings LLC, priority 1998, dated 2000).
Values after ≈ are worked out from the molar mass of the structure shown. Read-outs that look alike come from different tables or passages of the source.

Legend:
[1] = molecular target: T1, epidermal growth factor receptor kinase (Homo sapiens, UniProt P00533); assay: Inhibition of Epidermal Growth Factor Receptor Kinase (EGF-R) using recombinant enzyme; assay type: biochemical; details: averages of the individual determinations
T1 construct: containing the EGFR cDNA encoding amino acids 645 - 1186 preceded by Met-Ala-(His)6; made in house; host or cells: Sf9 insect cells, recombinant baculovirus vHcEGFR52
T1 sequence (P00533 669-1210): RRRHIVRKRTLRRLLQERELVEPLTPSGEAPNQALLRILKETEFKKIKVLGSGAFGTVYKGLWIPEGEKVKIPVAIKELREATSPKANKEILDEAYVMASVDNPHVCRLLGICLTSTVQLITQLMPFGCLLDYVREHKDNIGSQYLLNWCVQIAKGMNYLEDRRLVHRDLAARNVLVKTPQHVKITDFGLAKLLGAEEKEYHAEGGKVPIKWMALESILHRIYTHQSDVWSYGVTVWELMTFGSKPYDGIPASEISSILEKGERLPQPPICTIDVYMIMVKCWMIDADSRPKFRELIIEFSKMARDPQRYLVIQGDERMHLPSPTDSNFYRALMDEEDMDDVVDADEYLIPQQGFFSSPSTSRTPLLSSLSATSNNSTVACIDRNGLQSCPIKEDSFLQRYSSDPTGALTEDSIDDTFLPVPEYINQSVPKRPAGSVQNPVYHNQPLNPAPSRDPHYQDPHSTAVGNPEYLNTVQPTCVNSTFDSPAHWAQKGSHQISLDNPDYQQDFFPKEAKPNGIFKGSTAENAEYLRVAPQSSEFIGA

[2] = test system: MDAMB435; assay: Inhibition of Cancer Cell Growth as Measured by Cell Number; assay type: cell-based, Human; details: Homo sapiens, MDA-MB-435; 48 hours exposure, Sulforhodamine B
Description: (§1) Inhibition of Cancer Cell Growth as Measured bv Cell Number
(§2) Human tumor cell lines were plated in 96-well plates (250 µl/well, 1-6 x 10^4 cells/ml) in RPMI 1640 medium, containing 5% FBS (Fetal Bovine Serum). […] After 48 hours exposure to test compounds, cells were fixed with trichloroacetic acid, and stained with Sulforhodamine B. After washing with trichloroacetic acid, bound dye was solubilized in 10 mM Tris base and optical density was determined using plate reader. Under conditions of the assay the optical density is proportional to the number of cells in the well. […] The test procedure is described in details by Philip Skehan et. al, J.Natl. Canc. Inst., 82, 1107-1112 (1990). […] Information about some of the cell lines used in these test procedures is available from the American Type Tissue Collection: Cell Lines and Hybridomas, 1994 Reference Guide, 8th Edition.

[3] = test system: SKBR3; assay: as above; assay type: cell-based, Human; details: Homo sapiens, SK-BR-3; 48 hours exposure, Sulforhodamine B
Description: as §1, §2

[4] = test system: A431; assay: as above; assay type: cell-based, Human; details: Homo sapiens, A-431; 48 hours exposure, Sulforhodamine B
Description: as §1, §2

[5] = test system: SW620; assay: as above; assay type: cell-based, Human; details: Homo sapiens, SW-620; 48 hours exposure, Sulforhodamine B
Description: as §1, §2

[6] = molecular target: Epithelial Cell Kinase (ECK) (Homo sapiens, UniProt P29317); assay: Inhibition of Epithelial Cell Kinase (ECK) tyrosine kinase activity; assay type: biochemical
Chain of Epithelial Cell Kinase (ECK) (P29317 24-976, species assumed): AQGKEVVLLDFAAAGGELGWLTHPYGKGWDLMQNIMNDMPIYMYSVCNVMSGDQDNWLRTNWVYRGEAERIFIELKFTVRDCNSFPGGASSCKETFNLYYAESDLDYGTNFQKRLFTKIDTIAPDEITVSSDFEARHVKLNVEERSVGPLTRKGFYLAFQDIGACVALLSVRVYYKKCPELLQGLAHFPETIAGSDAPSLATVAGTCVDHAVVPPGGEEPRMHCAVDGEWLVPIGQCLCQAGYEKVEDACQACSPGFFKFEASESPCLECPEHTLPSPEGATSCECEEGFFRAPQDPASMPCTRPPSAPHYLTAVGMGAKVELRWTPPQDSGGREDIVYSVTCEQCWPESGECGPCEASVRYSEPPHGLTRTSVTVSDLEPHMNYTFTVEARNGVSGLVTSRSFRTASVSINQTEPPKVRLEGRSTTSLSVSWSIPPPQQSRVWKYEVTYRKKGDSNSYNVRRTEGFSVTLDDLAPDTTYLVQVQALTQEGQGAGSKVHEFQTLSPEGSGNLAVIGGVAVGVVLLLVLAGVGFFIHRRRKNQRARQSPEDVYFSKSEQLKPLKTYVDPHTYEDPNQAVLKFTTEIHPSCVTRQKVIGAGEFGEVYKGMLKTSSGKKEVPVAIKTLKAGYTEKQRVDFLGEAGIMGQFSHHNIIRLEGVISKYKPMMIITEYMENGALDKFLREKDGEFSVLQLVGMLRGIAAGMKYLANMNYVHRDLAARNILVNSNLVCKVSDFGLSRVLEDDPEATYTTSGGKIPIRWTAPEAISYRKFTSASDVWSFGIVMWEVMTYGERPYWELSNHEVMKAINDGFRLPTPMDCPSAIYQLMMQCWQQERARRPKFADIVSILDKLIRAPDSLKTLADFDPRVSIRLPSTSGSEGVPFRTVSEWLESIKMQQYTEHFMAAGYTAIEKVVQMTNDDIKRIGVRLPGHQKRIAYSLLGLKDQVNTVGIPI
Description: In this standard pharmacological test procedure, a biotinylated peptide substrate is first immobilized on neutravidin-coated microtiter plates. The test drug, the Epithelial Cell Kinase (ECK), Mg^++, sodium vanadate (a protein tyrosine phosphatase inhibitor), and an appropriate buffer to maintain pH (7.2) are then added to the immobilized substrate-containing microtiter wells. ATP is then added to initiate phosphorylation. After incubation, the assay plates are washed with a suitable buffer leaving behind phosphorylated peptide which is exposed to horse radish peroxidase (HRP)-conjugated anti-phosphotyrosine monoclonal antibody. The antibody-treated plates are washed again and the HRP activity in individual wells is quantified as a reflection of degree of substrate phosphorylation. […] Multiple entries for a given compound indication it was tested multiple times.

[7] = molecular target: erbB2 (Homo sapiens, UniProt P04626); assay: erbB2 inhibition at a single concentration; assay type: biochemical; details: read-out: erbB2 % Inh 2 µg/mL
Chain of erbB2 (P04626 23-1255): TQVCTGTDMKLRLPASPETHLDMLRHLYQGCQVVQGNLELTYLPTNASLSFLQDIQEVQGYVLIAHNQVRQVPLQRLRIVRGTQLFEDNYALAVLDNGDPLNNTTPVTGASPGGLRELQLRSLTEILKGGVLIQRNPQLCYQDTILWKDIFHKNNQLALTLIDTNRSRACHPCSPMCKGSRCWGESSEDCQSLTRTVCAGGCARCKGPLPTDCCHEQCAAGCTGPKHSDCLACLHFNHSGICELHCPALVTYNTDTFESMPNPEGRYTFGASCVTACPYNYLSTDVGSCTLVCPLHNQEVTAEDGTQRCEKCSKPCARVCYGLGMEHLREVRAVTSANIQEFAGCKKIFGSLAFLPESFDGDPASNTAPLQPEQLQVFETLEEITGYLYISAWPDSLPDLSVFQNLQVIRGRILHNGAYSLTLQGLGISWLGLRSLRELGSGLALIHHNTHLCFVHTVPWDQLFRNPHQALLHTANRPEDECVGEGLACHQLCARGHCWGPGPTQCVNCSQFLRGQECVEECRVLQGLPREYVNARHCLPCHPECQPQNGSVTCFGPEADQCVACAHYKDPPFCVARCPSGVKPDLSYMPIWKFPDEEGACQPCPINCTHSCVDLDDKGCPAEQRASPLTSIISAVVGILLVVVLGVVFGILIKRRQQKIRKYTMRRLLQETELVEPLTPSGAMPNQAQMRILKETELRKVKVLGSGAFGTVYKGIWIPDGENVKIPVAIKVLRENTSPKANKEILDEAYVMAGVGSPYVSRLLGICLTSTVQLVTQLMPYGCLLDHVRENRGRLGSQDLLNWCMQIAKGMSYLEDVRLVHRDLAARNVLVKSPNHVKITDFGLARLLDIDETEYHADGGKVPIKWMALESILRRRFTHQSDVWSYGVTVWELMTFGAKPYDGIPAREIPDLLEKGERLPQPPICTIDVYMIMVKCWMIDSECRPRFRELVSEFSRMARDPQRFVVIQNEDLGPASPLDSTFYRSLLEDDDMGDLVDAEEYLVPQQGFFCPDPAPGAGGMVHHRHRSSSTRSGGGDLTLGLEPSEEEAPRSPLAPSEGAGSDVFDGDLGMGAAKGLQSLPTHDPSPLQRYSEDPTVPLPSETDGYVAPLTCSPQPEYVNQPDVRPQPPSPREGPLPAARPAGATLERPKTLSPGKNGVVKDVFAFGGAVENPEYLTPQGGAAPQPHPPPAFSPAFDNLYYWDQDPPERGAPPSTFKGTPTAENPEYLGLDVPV

[8] = molecular target: Mek and Erk (Homo sapiens, UniProt P28482+Q02750); assay: Mitogen Activated Protein Kinase (MAPK) coupled assay (Mek-Erk); assay type: biochemical
Chain of Mek and Erk (Q02750 whole entry): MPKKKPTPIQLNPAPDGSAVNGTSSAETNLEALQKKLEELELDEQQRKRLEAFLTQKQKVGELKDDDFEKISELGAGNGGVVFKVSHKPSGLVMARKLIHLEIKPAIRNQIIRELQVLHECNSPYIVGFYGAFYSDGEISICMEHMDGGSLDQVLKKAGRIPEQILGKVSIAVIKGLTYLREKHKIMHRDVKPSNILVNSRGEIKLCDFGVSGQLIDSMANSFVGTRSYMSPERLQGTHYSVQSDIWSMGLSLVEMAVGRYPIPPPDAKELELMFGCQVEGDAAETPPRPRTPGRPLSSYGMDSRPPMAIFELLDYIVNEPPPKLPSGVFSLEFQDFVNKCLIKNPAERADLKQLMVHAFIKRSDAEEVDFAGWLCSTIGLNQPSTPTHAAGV
Chain of Mek and Erk (P28482 2-360): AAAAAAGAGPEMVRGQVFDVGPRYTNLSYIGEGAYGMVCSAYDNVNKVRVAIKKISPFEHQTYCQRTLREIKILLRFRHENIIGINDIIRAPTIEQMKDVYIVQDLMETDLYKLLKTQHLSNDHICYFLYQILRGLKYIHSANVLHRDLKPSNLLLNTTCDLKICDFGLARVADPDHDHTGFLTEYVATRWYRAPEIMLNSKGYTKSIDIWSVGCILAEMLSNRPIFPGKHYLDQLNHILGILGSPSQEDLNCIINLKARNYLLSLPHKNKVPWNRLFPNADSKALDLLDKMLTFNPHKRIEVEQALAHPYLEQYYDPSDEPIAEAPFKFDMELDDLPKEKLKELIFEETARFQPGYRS
Description: Mitogen Activated Protein Kinase (MAPK) Assay
To evaluate inhibitors of the MAP (mitogen activated protein) kinase a two component coupled standard pharmacological test procedure, which measures phosphorylation of a serine/threonine residue in an appropriate sequence in the substrate in the presence and absence of a putative inhibitor, was used. Recombinant human MEK 1 (MAPKK) was first used to activate recombinant human ERK2 (MAPK) and the activated MAPK (ERK) was incubated with substrate (MBP peptide or MYC peptide) in the presence of ATP, Mg^+2 and radiolabeled ^33P ATP. The phosphorylated peptide was captured on a P 81 phosphocellulose filter (paper filter or embedded in microtiter plate) washed and counted by scintillation methods.
The peptide substrates used in the assay are MBP, peptide substrate ([…]), or synthetic Myc substrate, ([…]•5 TFA. The recombinant enzymes used were prepared as GST fusion proteins of human ERK 2 and human MEK 1. Inhibitor samples were prepared as 10X stocks in 10% DMSO and an appropriate aliquot was used to deliver either 10 ug/ml for a single point screening dose or 100, 10, 1, and 0.1 uM final concentration for a dose response curve. Final DMSO concentrations were less than or equal to 1%.
The reaction was run as follows in 50 mM Tris kinase buffer, pH 7.4 in a reaction volume of 50 ul. The appropriate volume of kinase buffer and inhibitor sample was added to the tube. Appropriate dilution of enzyme was delivered to give 2-5 ug recombinant MAPK (Erk ) per tube. The inhibitor was incubated with MAPK (Erk) for 30 min at 0 deg. C. Recombinant Mek (MAPKK) ( 0.5-2.5 ug) or fully activated Mek (0.05-0.1 units) was added to activate the Erk and incubated for 30 min at 30° C. Then substrate and gamma ^33P ATP was were added to give a final concentration of 0.5- 1 mM MBPP or 250-500 uM Myc; 0.2-0.5 uCi gamma P 33 ATP/tube; 50 µM ATP final concentration. Samples were incubated at 30°C for 30 minutes and the reaction was stopped by adding 25 µl of ice cold 10 %TCA .After samples were chilled on ice for 30 min, 20 µl of sample was transferred onto P 81 phosphocellulose filter paper or appropriate MTP with embedded P 81 filter. Filter papers or MTP were washed 2 times with a large volume of 1% acetic acid, then 2 times with water. The filters or MTP were briefly air dried before addition of scintillant and samples were counted in the appropriate scintillation counter set up for reading ^33P isotope. Samples included a positive control (activated enzyme plus substrate); a no enzyme control; a no substrate control; samples with different concentrations of putative inhibitor; and samples with reference inhibitors (other active compounds or non-specific inhibitors such as staurosporine or K252 B).
The raw data was captured as cpm. Sample replicates were averaged and corrected for background count. Mean cpm data was tabulated by group and % inhibition by a test compound was calculated as (corrected cpm control- corrected. cpm sample/control) X 100 = % inhibition. […] The results obtained for representative compounds of this invention are listed in TABLE 2 where there may be separate entries for the same compound; this is an indication that the compound was evaluated more than one time.

[9] = coupled MEK 1 / ERK2; separate entries = separate tests; read-out: Mek and Erk

IC50 [1]	IC50 [2]	IC50 [3]	IC50 [4]	IC50 [5]	inhibition at 2 µg/mL [7]	IC50 [8, 9]	Compound	also measured
500 nM							COc1cc2ncc(C#N)c(Nc3ccc(F)c(Cl)c3)c2cc1NC(=O)C=CCN1CCSCC1 [Example 107, 4-Thiomorpholin-4-yl-but-2-enoic acid [4-(3-chloro-4-fluoro-phenylamino)-3-cyano-7-methoxy-quinolin-6-yl]-amide]	
5 nM							COc1cc2ncc(C#N)c(Nc3ccc(F)c(Cl)c3)c2cc1NC(=O)C=CC[n+]1csc(C)c1 [Example 95, 3-{3-[4-(3-Chloro-4-fluoro-phenylamino)-3-cyano-7-methoxy-quinolin-6-ylcarbamoyl]-allyl}-5-methyl-thiazol-3-ium bromide]	
13 nM							COc1cc2ncc(C#N)c(Nc3ccc(F)c(Cl)c3)c2cc1NC(=O)C=CCN(CCO)CCO [Example 106, 4-[Bis-(2-hydroxy-ethyl)-amino]-but-2-enoic acid [4-(3-chloro-4-fluoro-phenylamino)-3-cyano-7-methoxy-quinolin-6-yl]-amide]	
5 nM							COc1cc2ncc(C#N)c(Nc3ccc(F)c(Cl)c3)c2cc1NC(=O)C=CCN(CC(C)O)CC(C)O (centres unmarked) [Example 115, 4-[Bis-(2-hydroxy-propyl)-amino]-but-2-enoic acid [4-(3-chloro-4-fluoro-phenylamino)-3-cyano-7-methoxy-quinolin-6-yl]-amide]	
0.36 nM	0.3 µg/mL (≈ 0.579 µM)	0.01 µg/mL (≈ 0.0193 µM)	0.04 µg/mL (≈ 0.0772 µM)	0.1 µg/mL (≈ 0.193 µM)			COC[C@@H]1CCCN1CC#CC(=O)Nc1ccc2ncc(C#N)c(Nc3cccc(Br)c3)c2c1 [Example 79, 4-((2S)-2-Methoxymethylpyrrolidin-1-yl)but-2-ynoic Acid [4-(3-bromophenylamino)-3-cyanquinolin-6-yl]amide]	
6 nM	3.5 µg/mL (≈ 7.3 µM)	0.8 µg/mL (≈ 1.67 µM)	0.9 µg/mL (≈ 1.88 µM)	0.4 µg/mL (≈ 0.834 µM)	96%	> 100000 nM	COCCOCC#CC(=O)Nc1ccc2ncc(C#N)c(Nc3cccc(Br)c3)c2c1 [Example 72, 4-(2-Methoxy-ethoxy)-but-2-ynoic acid [4-(3-bromo-phenylamino)-3-cyano-quinolin-6-yl]-amide]	IC50 [6]: > 41700 nM
					95%	> 100000 nM	COCOCC#CC(=O)Nc1ccc2ncc(C#N)c(Nc3cccc(Br)c3)c2c1 [Example 74, 4-Methoxymethoxy-but-2-ynoic acid [4-(3-bromo-phenylamino)-3-cyano-quinolin-6-yl]-amide]	IC50 [6]: > 43000 nM
26 nM							COc1cc2ncc(C#N)c(Nc3ccc(F)c(Cl)c3)c2cc1NC(=O)C=CCN1CCN(CCO)CC1 [Example 108, 4-[4-(2-Hydroxy-ethyl)-piperazin-1-yl]-but-2-enoic acid [4-(3-chloro-4-fluoro-phenylamino)-3-cyano-7-methoxy-quinolin-6-yl]-amide]	
100 nM							COc1cc2ncc(C#N)c(Nc3ccc(F)c(Cl)c3)c2cc1NC(=O)C=CC[n+]1cscc1C [Example 96, 3-{3-[4-(3-Chloro-4-fluoro-phenylamino)-3-cyano-7-methoxy-quinolin-6-ylcarbamoyl]-allyl}-4-methyl-thiazol-3-ium bromide]	
7 nM							COc1cc2ncc(C#N)c(Nc3ccc(F)c(Cl)c3)c2cc1NC(=O)C=CCN1CCOCCOCCOCC1 [Example 109, 4-(1,4,7-Trioxa-10-aza-cyclododec-10-yl)-but-2-enoic acid [4-(3-chloro-4-fluoro-phenylamino)-3-cyano-7-methoxy-quinolin-6-yl]-amide]	
8 nM							C=CCN(CC=C)CC=CC(=O)Nc1cc2c(Nc3ccc(F)c(Cl)c3)c(C#N)cnc2cc1OC [Example 103, 4-Diallylamino-but-2-enoic acid [4-(3-chloro-4-fluoro-phenylamino)-3cyano-7-methoxy-quinolin-6-yl]-amide]	
0.05 nM							COc1cc2ncc(C#N)c(Nc3ccc(F)c(Cl)c3)c2cc1NC(=O)C=CCN1CCC(O)(O)CC1 [Example 119, 4-(4,4-Dihydroxy-piperidin-1-yl)-but-2-enoic acid [4-(3-chloro-4-fluoro-phenylamino)-3-cyano-7-methoxy-quinolin-6-yl]-amide]	
10 nM	0.284 µg/mL (≈ 0.577 µM)	0.031 µg/mL (≈ 0.063 µM)	0.05 µg/mL (≈ 0.102 µM)	0.239 µg/mL (≈ 0.485 µM)	96%	> 100000 nM	COCCN(C)CC#CC(=O)Nc1ccc2ncc(C#N)c(Nc3cccc(Br)c3)c2c1 [Example 76, N-[4-[(3-Bromophenyl)amino]-3-cyano-6-quinolinyl]-4-(N-methoxyethyl-N-methylamino)-2-butynamide]	
6 nM	0.1 µg/mL (≈ 0.211 µM)	0.02 µg/mL (≈ 0.0422 µM)	0.03 µg/mL (≈ 0.0632 µM)	0.1 µg/mL (≈ 0.211 µM)	105%	> 100000 nM	C=CCN(C)CC#CC(=O)Nc1ccc2ncc(C#N)c(Nc3cccc(Br)c3)c2c1 [Example 77, N-[4-[(3-Bromophenyl)amino]-3-cyano-6-quinolinyl]-4-(N-allyl-N-methylamino)-2-butynamide]	IC50 ([6]; IC50 = concentration that inhibits substrate phosphorylation by 50%): 42200 nM

Compound	IC50 [1]	IC50 [2]	IC50 [3]	IC50 [4]	IC50 [5]	inhibition at 2 µg/mL [7]	IC50 [8, 9]	also measured
CCOc1c(Nc2ccc3ncc(C#N)c(Nc4cccc(Br)c4)c3c2)c(=O)c1=O [Example 85, 4-(3-Bromo-phenylamino)-6-(2-ethoxy-3,4-dioxo-cyclobut-1-enylamino)-quinoline-3-carbonitrile]		27.6 µg/mL (≈ 59.6 µM)	1.74 µg/mL (≈ 3.76 µM)	4.91 µg/mL (≈ 10.6 µM)	18 µg/mL (≈ 38.8 µM)	87%		IC50 ([8]; read-out: Mek and Erk; coupled MEK 1 / ERK2; separate entries = separate tests): 1800 nM
CN1CCC=C(C(=O)Nc2ccc3ncc(C#N)c(Nc4cccc(Br)c4)c3c2)C1 [Example 78, 1-Methyl-1,2,5,6-tetrahydro-pyridine-3-carboxylic acid [4-(3-bromo-phenylamino)-3-cyano-quinolin-6-yl]-amide]		3.19 µg/mL (≈ 6.91 µM)	1.5 µg/mL (≈ 3.23 µM)	0.369 µg/mL (≈ 0.798 µM)	> 5 µg/mL	53%	40000 nM	IC50 [6]: > 21300 nM
COCCN(CC#CC(=O)Nc1ccc2ncc(C#N)c(Nc3cccc(Br)c3)c2c1)CCOC [Example 75, N-[4-[(3-Bromophenyl)amino]-3-cyano-6-quinolinyl]-4-(bis-(2-methoxyethyl)amino)-2-butynamide]	0.4 nM	0.2 µg/mL (≈ 0.373 µM)	0.04 µg/mL (≈ 0.0746 µM)	0.1 µg/mL (≈ 0.186 µM)	0.5 µg/mL (≈ 0.932 µM)		100000 nM	
